Results on 1 compound are retold here after ChEMBL document CHEMBL4402592, “Targeting Endoplasmic Reticulum α-Glucosidase I with a Single-Dose Iminosugar Treatment Protects against Lethal Influenza and Dengue Virus Infections” (J Med Chem, 2020).

Activity calls are given as the source filed them. No cut-off for these calls is given here.

The test system of assay [1] is Influenza A virus. The experiment in a line: Antiviral activity against Influenza A virus (A/Texas/36/1991(H1N1)) infected in BALB/c mouse assessed as animal survival at 100 mg/kg, po administered via gavage starting at 8 hrs post-infection and continuing TID for 5 days (reference value: 0%). It counts as functional.
Assay [2] deals with Mus musculus. Put plainly: In vivo inhibition of ERGlu2 in BALB/c mouse assessed as increase in mono-glucosylated FOS level in serum at 100 mg/kg, po administered via gavage starting at 8 hrs post-infection and continuing tid for 5 days and measured at 8 hrs post-final dose by NP-HPLC analysis. The class given is functional, organism-based.
The subject of assay [3] is Influenza A virus. Put plainly: Antiviral activity against Influenza A virus (A/Texas/36/1991(H1N1)) infected in BALB/c mouse assessed as animal survival at 750 mg/kg, po administered via gavage as single dose at 8 hrs post infection (reference value: 0%). It counts as functional.
In assay [4] the test system is Influenza A virus. The experiment in a line: Antiviral activity against Influenza A virus (A/Texas/36/1991(H1N1)) infected in BALB/c mouse assessed as median death time at 750 mg/kg, po administered via gavage as single dose at 8 hrs post infection. It counts as functional.
The test system of assay [5] is dengue virus type 2. Put plainly: Antiviral activity against Dengue virus 2 S221 infected in DENV antibody dependent enhancement AG129 mouse model assessed as animal survival at 250 mg/kg, po administered via gavage as two doses at 8 and 24 hrs post infection (reference value: 4%). It counts as functional.
In assay [6] the test system is dengue virus type 2. The experiment in a line: Antiviral activity against Dengue virus 2 S221 infected in DENV antibody dependent enhancement AG129 mouse model assessed as reduction in IL-12/IL-23p40 level at 750 mg/kg, po administered via gavage as single dose at 36 hrs post infection measured at 60 hrs post-infection by electrochemiluminescence based method. The class given is functional, organism-based.

Assay [7] relates to dengue virus type 2. The experiment in a line: Antiviral activity against Dengue virus 2 S221 infected in DENV antibody dependent enhancement AG129 mouse model assessed as reduction in IL-12/IL-23p40 level at 750 mg/kg, po administered via gavage as two doses at 36 hrs and 52 hrs post infection measured at 60 hrs post-infection by electrochemiluminescence based method. It counts as functional, organism-based.

In assay [8] the test system is Mus musculus. Put plainly: In vivo inhibition of ERGlu2 in BALB/c mouse assessed as increase in mono-glucosylated FOS level in serum at 20 mg/kg, po administered via gavage starting at 8 hrs post-infection and continuing tid for 5 days and measured at 8 hrs post-final dose by NP-HPLC analysis. The class given is functional, organism-based.
In assay [9] the test system is Mus musculus. Put plainly: In vivo inhibition of ERGlu1 in BALB/c mouse assessed as increase in tri-glucosylated FOS level in spleen at >250 mg/kg, po administered via gavage as single dose at 8 hrs post-infection and measured at 8 hrs post dose by NP-HPLC analysis. The class given is functional, organism-based.
Assay [10] relates to Influenza A virus. The experiment in a line: Antiviral activity against Influenza A virus (A/PA/10/2010 (H3N2)) infected in BALB/c mouse assessed as increase in animal survival rate at >250 mg/kg, po administered via gavage as single dose at 8 hrs post infection. It counts as functional, organism-based.
In assay [11] the test system is dengue virus type 2. The experiment in a line: Antiviral activity against Dengue virus 2 S221 infected in DENV antibody dependent enhancement AG129 mouse model assessed as reduction in TNF-alpha level at 750 mg/kg, po administered via gavage as single dose at 36 hrs post infection measured at 60 hrs post-infection by electrochemiluminescence based method. It counts as functional, organism-based.

The subject of the next assay is Cynomolgus monkey. Put plainly: In vivo inhibition of ERGlu2 in cynomolgus monkey serum assessed as increase in mono-glucosylated FOS level in serum at 26 to 258 mg/kg, po administered via gavage as single dose and measured up to 72 hrs post-dose by NP-HPLC analysis. The class given is functional, organism-based. The note with it: Macaca fascicularis.
Assay [12] concerns Mus musculus. Put plainly: In vivo inhibition of ERGlu2 in BALB/c mouse assessed as increase in mono-glucosylated FOS level in lung at 100 mg/kg, po administered via gavage starting at 8 hrs post-infection and continuing tid for 5 days and measured at 8 hrs post-final dose by NP-HPLC analysis. The class given is functional, organism-based.

On to `COCCCCCCCCCN1C[C@H](O)[C@@H](O)[C@H](O)[C@H]1CO.Cl`, for which the survival at 100 mg/kg with Influenza A virus [1] came out at 90%. Besides, the inhibition entry in the assay with Mus musculus [2], with Mus musculus [8], in the assay on Mus musculus [9], in the assay on Cynomolgus monkey and in the assay on Mus musculus [12] was “Active” in each case. Moreover, the survival at 750 mg/kg in the assay on Influenza A virus [3] was determined as 80%. For the same compound, the Time with Influenza A virus [4] is >14 days. For the same compound, in the assay on dengue virus type 2 [5], the survival at 250 mg/kg came to 86%. Further, the outcome in the assay on dengue virus type 2 [6], in the assay with dengue virus type 2 [7], in the assay with Influenza A virus [10] and in the assay on dengue virus type 2 [11] was Active.
